Test system: erythrocytes in heparinized bovine blood
Assay: In-vitro hemolysis of erythrocytes in heparinized whole blood, absorbance at 413 nm
Conditions: 1 hour at 37° C.
Procedure: The effect of the compounds on the in-vitro hemolysis of erythrocytes in heparinized whole blood is monitored by a spectrophotometric method.
Various formulations and concentrations of the test compound are added to heparinized bovine blood and mixed gently in a 1.5 ml microcentrifuge tube. The sample is allowed to incubate for 1 hour at 37° C. At the end of incubation, the samples are removed from the incubator and centrifuged at 2000 rpm for 5 minutes. A 200 μl aliquot of the supernatant is removed from each sample into a 96 well microtiter plate and read at 413 nm. The absorbance of the test sample is compared to the control sample containing phosphate buffered saline, pH 7.2.

Compound | Concentration at which hemolysis is not observed
C[N+](C)(C)CCCCCCCCCC[N+](C)(C)C.[I-].[I-] [Decamethonium Iodide] | 0.0125%
C[N+](C)(C)CCCCCC[N+](C)(C)C [Hexamethonium Bromide] | 0.0125%
Tergitol NP-9 | 0.001%
